Data set [1] in a line: Solubility of HDDS in esters of dibasic acids. It is filed as physicochemical.
The nature of data set [2]: Ultraviolet radiation transmittance and SPF of sunscreen lotions, LABSPHERE Ultraviolet Transmittance Analyzer. On the procedure:
Sunscreen lotion compositions were made and tested for UV absorbance. A control sample sunscreen lotion was made without a compound of formula (I) and a test sample was made in accordance with the invention, using a compound of formula (I) wherein n is 6 (HDDS). Table 1 summarizes the composition of the control and HDDS sunscreen lotions, by wt. %.
To prepare the sunscreen lotions, the A phase ingredients were blended together and heated to 90° C. to dissolve the oxybenzone. Next, the B phase ingredients were added with stirring until homogeneous. In a separate vessel, EDTA was dissolved in water and heated to 85° C. A preblended mixture of preservative, butylene glycol, and glycerin was added to the EDTA/water solution. In a separate vessel, carbomer was dispersed in 50 g water and set aside. With homogenization, the A+B oil phase was added to the C water phase. Next, the pre-dispersed carbomer D phase was added to the A+B+C mixture. While maintaining the temperature at 85° C., the mixture was homogenized for about 10 minutes, and then removed from heat and stirred with a propellor while cooling. When the temperature was below 40° C., the neutralizer E was slowly added and the mixture was stirred until a smooth, homogeneous lotion resulted.
Ultraviolet radiation transmittance and SPF of the control and HDDS samples were measured over the range 290 to 400 nm using a LABSPHERE Ultraviolet Transmittance Analyzer. Five scans were performed on each sample. Critical Wavelength (nm) and SPF data are reported in Table 2 below for the control and HDDS samples.
The ordinate represents absorbance, in units log(base 10)*(1/transmittance (%)), and the abscissa represents wavelength in nanometers.

Where [3] appears, read: HDDS in a sunscreen lotion versus control lotion.

With `O=C(OCCCCCCOC(=O)c1ccccc1O)c1ccccc1O` [HDDS, hexanediol disalicylate], the “soluble in diisopropyl adipate” value in data set [1] (solvent diisopropyl adipate) is reported as “at least 5 % by weight”. Also, in data set [1] (solvent dilsopropyl sebacate), the “soluble in dilsopropyl sebacate” value is recorded as “at least 5 % by weight”. For the same molecule, in data set [1] (solvent dioctyl adipate), the “soluble in dioctyl adipate” value is “at least 5 % by weight”. Moreover, the “soluble in dioctyl maleate” value in data set [1] (solvent dioctyl maleate) was “at least 5 % by weight”. For the same molecule, the “soluble in dioctyl sebacate” value in data set [1] (solvent dioctyl sebacate) is “at least 5 % by weight”. In data set [2] (FIG. 1, average of five scans, versus control sample), the “UV absorbance of the lotion” value is listed as “increases UV absorbance of the lotion at every wavelength of radiation measured”. In addition, in data set [2] (setting [3]), the “SPF value of the lotion” value is listed as “boosts the SPF value”; the “transmittance of UVA and UVB radiation” value was “reduces the transmittance of UVA and UVB radiation”.

For the origin of these results see patent US6355261B1, “Ultraviolet radiation absorbing waxes useful in cosmetic compositions” (priority 1999, dated 2002).
